# Calls of active or inactive are those of the source.
# Experiments:
# [1] = target: 5-hydroxytryptamine receptor 2A (Mus musculus, UniProt P35363); assay type: functional, cell-based;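 further: CHO-K1 cells with tagged receptor and beta-arrestin; agonist potency measured as compound-induced activation of the receptor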
# [2] = target: FAD-linked sulfhydryl oxidase ALR (Homo sapiens, UniProt P55789); experiment: inhibitors of human ALR sulfhydryl oxidase, dose response, biochemical, H2O2 detection, luminescence, cherry-pick (AID 493248)
# Mu-type opioid receptor = Mu-type opioid receptor (Homo sapiens, UniProt P35372); assay type: functional, cell-based;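 further: U2OS cells with beta-arrestin recruitment to OPRM1 by beta-gal complementation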
# Steroidogenic factor 1 = Steroidogenic factor 1 (Homo sapiens, UniProt Q13285); experiment: Counterscreen for inverse agonists of the liver receptor homolog-1 (LRH-1; NR5A2): Luminescence-based cell-based high throughput dose response assay to identify inverse agonists of the Steroidogenic Factor 1 Nuclear Receptor (SF1; NR5A1).; assay type: functional
# [3] = StAR promoter reporter inhibition counter-screen, dose response, counter-screen for LRH-1 inverse agonist project, cell-based, luminescence, luciferase reporter (AID 651969); assay type: functional
# [4] = target: Nuclear receptor subfamily 5 group A member 2 (Homo sapiens, UniProt O00482); assay type: functional, cell-based;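 further: HEK293T cells transfected with LRH-1 and a StAR promoter luciferase reporter; potency for inhibitors that lower LRH-1 driven reporter light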
# Beta-galactosidase = Beta-galactosidase (Escherichia coli, UniProt Q8VNN2); experiment: Dose response counterscreen for EBI2 assay utilizing the enzyme, b-galactosidase.; assay type: functional
# [5] = inhibitors of intracellular T. cruzi replication, confirmation, NIH3T3 host cells, beta-gal luminescence (AID 2044); assay type: functional, cell-based;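 further: intracellular parasites grown in NIH/3T3 mouse fibroblasts as host cells; luminescent beta-galactosidase reporter signal from transgenic T. cruzi replicating inside host cells; inhibitors lower the luminescence signal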
# [6] = cytotoxicity toward NIH3T3 fibroblasts, dose response, counter-screen, cell-based, ATP luminescence, mouse fibroblasts (AID 2010); assay type: functional;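 further: cells exposed to compound for about 90 hours before reading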
# [7] = target: T1, Low molecular weight phosphotyrosine protein phosphatase (Homo sapiens, UniProt P24666); assay type: functional; conditions: read-out: IC50_Mean
# T1 sequence (P24666 whole entry): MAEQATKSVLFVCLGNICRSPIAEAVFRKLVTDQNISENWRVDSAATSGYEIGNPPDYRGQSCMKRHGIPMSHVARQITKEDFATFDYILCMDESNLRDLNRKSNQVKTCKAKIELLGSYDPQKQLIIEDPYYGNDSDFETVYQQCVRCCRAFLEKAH
# [8] = target: Tyrosine-protein phosphatase non-receptor type 5 (Homo sapiens, UniProt P54829); experiment: STEP phosphatase inhibitors, confirmation, biochemical, fluorescence intensity, uHTS hits (AID 602372); assay type: functional; conditions: read-out: IC50_Mean
# [9] = target: Dual specificity protein phosphatase 3 (Homo sapiens, UniProt P51452); experiment: VHR phosphatase inhibition, dose response, selectivity assay for STEP inhibitor project, biochemical (AID 602374); assay type: functional; conditions: read-out: IC50_Mean
# [10] = target: T2, Corticotropin-releasing factor receptor 2/Corticotropin-releasing factor-binding protein (Homo sapiens, UniProt P24387+Q13324); experiment: Dose Response confirmation of uHTS hits for small molecule antagonists of the CRF-binding protein and CRF-R2 receptor complex.; assay type: functional; conditions: read-out: IC50_Mean
# T2 sequence (Q13324 whole entry): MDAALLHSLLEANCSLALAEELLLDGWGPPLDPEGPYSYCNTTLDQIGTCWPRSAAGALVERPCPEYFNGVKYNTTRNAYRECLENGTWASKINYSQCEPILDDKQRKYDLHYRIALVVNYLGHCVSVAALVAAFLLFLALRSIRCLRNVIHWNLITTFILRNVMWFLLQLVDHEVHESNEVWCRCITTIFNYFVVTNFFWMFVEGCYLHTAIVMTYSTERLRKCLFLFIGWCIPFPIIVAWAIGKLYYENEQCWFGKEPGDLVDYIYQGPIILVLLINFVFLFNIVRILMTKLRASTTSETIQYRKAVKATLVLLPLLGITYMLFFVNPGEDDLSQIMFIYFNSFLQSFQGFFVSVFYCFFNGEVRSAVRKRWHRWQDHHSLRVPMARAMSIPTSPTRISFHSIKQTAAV
# T2 sequence (P24387 whole entry): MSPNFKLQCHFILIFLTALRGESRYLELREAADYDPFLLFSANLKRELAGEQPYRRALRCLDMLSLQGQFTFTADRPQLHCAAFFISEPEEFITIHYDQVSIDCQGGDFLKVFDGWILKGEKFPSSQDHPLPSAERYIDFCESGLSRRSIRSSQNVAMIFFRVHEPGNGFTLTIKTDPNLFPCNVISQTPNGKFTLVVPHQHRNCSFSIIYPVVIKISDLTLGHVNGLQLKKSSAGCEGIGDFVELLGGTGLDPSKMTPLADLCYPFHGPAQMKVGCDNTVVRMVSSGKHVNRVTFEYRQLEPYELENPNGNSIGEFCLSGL
# [11] = target: Tyrosine-protein phosphatase non-receptor type 11 (Homo sapiens, UniProt Q06124); experiment: SHP2 phosphatase inhibition, dose response, selectivity assay for STEP inhibitor project, biochemical (AID 602367); assay type: functional; conditions: read-out: IC50_Mean
# [12] = target: T2, Corticotropin-releasing factor receptor 2/Corticotropin-releasing factor-binding protein; experiment: activators of CRF receptor 2 with binding protein – uHTS hits, confirmation (AID 602473); assay type: functional; conditions: read-out: EC50_Mean
# [13] = target: T1, Low molecular weight phosphotyrosine protein phosphatase; assay type: functional; conditions: read-out: IC50_Mean; remark: listed apart in the source
# [14] = target: T3, Carboxy-terminal domain RNA polymerase II polypeptide A small phosphatase 1 (Homo sapiens, UniProt Q9GZU7); experiment: inhibitors of CTDSP1, concentration-response testing, biochemical assay, absorbance-based, actives from ultra-high-throughput screening (AID 540297); assay type: functional
# T3 sequence (Q9GZU7 whole entry): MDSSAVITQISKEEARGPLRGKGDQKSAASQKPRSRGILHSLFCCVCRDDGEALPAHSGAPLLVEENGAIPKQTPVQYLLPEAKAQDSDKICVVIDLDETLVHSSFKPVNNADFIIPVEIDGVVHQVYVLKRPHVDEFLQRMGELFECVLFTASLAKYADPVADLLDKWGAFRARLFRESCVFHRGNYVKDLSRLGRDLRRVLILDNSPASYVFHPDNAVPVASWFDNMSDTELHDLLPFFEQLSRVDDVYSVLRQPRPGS
# [15] = target: T4, Small ubiquitin-related modifier 1 (Homo sapiens, UniProt P63165); experiment: inhibitors of SUMO1 partner interactions, dose response, biochemical, FRET (AID 624383); assay type: functional; conditions: read-out: IC50_Mean
# [16] = target: Arf-GAP with SH3 domain, ANK repeat and PH domain-containing protein 1 (Homo sapiens, UniProt Q9ULH1); assay type: functional;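 further: biochemical fluorescence polarization dose–response screen measuring inhibition of ASAP1; ASAP1 GAP domain stimulating GTP hydrolysis by truncated human ARF1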
# [17] = target: T4, Small ubiquitin-related modifier 1; experiment: inhibitors of SUMO1 peptide binding, dose response, biochemical, fluorescence polarization, uHTS hits (AID 624382); assay type: functional; conditions: read-out: IC50_Mean
# [18] = target: T5, Replicative DNA helicase DnaB (Mycobacterium tuberculosis, UniProt P9WMR3); experiment: DnaB intein splicing inhibitors, dose response, biochemical, cell-free fluorescence (AID 449749); assay type: functional
# T5 sequence (P9WMR3 whole entry): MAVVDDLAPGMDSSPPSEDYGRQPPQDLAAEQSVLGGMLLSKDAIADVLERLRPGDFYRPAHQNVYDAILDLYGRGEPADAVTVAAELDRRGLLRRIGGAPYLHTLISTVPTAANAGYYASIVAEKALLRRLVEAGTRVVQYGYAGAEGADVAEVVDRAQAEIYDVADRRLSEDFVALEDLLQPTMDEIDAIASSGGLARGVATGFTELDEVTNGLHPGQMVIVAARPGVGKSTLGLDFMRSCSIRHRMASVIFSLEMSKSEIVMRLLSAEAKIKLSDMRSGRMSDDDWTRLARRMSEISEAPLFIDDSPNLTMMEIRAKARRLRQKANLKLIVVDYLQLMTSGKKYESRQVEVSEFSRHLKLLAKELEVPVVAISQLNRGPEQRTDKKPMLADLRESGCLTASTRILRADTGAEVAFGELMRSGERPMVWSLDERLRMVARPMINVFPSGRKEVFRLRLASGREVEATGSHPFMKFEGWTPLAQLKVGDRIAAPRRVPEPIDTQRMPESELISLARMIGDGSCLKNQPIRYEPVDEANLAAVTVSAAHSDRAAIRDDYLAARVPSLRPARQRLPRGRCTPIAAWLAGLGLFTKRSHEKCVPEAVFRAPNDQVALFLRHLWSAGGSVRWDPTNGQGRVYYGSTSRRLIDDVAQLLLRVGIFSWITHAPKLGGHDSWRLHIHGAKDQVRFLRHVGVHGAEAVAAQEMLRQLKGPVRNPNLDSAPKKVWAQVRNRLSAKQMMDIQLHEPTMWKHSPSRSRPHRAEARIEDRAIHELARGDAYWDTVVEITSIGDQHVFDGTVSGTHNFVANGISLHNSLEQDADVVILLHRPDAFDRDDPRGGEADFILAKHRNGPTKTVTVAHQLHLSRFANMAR
# [19] = cytotoxicity toward DRD oncogenic fibroblasts, dose response, cell-based, non-viral oncogenic, luminescence (AID 1934); assay type: functional; conditions: Homo sapiens
# [20] = target: Heat shock protein HSP 90-alpha (Homo sapiens, UniProt P07900); assay type: functional, organism-based
# BJ [21] = experiment: cells; assay type: functional, cell-based; conditions: Homo sapiens
# BJ [22] = experiment: cytotoxicity toward BJ-TERT fibroblasts, dose response, cell-based, RAS-independent, luminescence (AID 1933); assay type: functional; conditions: Homo sapiens
# BJ [23] = experiment: cytotoxicity toward Ras-transformed BJeLR fibroblasts, dose response, cell-based, alamar blue fluorescence, cherrypicked samples (AID 2631); assay type: functional; conditions: Homo sapiens;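 further: confirmatory dose-response assay in RAS-dependent BJ fibroblasts engineered with TERT, LT and ST, with cytotoxicity read by fluorescence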
# Protein RecA = target: T6, Protein RecA (Mycobacterium tuberculosis, UniProt P9WHJ3); experiment: Fluorescence Cell-Free Homogeneous Dose Retest to Identify Inhibitors of RecA-Intein Splicing Activity. [Related pubchem assays (depositor defined):AID2097, AID2223, AID489010, AID492950]; assay type: functional
# T6 sequence (P9WHJ3 whole entry): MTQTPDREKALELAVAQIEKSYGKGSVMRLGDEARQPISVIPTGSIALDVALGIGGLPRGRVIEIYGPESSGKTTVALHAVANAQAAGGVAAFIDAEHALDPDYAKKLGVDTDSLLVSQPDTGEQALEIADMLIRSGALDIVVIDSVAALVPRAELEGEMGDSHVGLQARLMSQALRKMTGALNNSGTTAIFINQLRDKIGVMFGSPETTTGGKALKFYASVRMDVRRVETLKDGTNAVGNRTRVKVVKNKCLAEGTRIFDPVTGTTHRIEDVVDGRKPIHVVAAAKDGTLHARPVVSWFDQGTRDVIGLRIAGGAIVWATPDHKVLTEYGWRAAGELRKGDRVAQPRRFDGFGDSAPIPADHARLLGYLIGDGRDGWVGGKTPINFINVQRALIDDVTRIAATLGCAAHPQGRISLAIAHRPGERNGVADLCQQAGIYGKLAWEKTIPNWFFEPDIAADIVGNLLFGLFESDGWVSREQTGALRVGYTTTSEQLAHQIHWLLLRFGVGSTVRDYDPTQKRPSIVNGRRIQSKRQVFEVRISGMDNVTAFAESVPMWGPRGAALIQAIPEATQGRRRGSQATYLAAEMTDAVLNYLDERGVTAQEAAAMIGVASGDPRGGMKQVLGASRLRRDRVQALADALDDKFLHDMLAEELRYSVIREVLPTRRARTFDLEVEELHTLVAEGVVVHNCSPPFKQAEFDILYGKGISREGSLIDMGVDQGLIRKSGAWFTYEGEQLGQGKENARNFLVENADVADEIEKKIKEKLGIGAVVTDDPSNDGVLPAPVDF
# [24] = Fluorescence-based cell-based high throughput dose response assay for inhibitors of the interaction of nucleotide-binding oligomerization domain containing 2 (NOD2) and the receptor-interacting serine-threonine kinase 2 (RIPK2).; assay type: functional; conditions: Homo sapiens
# BJ [25] = experiment: cytotoxicity toward BJ-TERT-LT-ST fibroblasts, dose response, cell-based, RAS-independent, luminescence (AID 1935); assay type: functional; conditions: Homo sapiens;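 further: BJ fibroblasts immortalized with TERT plus LT and ST oncogenes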
# Sequence of Beta-galactosidase (Q8VNN2 whole entry): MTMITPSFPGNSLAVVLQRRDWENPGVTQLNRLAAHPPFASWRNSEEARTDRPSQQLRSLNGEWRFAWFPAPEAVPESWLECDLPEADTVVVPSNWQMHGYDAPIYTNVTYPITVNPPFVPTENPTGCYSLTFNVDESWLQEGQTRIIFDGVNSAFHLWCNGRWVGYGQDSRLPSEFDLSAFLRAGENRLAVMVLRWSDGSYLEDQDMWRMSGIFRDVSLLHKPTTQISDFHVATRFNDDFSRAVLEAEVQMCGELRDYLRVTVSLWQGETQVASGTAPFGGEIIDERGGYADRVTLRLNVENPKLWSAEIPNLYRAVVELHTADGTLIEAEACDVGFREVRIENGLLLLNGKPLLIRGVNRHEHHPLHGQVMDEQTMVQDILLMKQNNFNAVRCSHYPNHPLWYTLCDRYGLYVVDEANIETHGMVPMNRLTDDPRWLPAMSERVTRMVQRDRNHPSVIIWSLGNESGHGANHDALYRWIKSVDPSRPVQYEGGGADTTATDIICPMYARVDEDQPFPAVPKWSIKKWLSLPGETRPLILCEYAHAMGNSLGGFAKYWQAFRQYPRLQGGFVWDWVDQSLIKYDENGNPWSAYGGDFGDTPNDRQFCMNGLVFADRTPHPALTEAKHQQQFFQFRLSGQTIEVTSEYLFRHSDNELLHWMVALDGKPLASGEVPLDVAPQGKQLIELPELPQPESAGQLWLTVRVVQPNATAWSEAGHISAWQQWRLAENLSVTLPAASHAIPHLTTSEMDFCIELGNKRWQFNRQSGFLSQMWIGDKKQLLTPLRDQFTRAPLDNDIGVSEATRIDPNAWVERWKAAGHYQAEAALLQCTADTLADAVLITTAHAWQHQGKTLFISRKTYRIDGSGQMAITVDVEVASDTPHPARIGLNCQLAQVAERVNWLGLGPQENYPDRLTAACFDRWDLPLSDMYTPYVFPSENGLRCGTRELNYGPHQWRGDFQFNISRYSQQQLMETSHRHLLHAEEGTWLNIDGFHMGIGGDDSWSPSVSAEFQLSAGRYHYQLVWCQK
# Sequence of Tyrosine-protein phosphatase non-receptor type 5 (P54829 whole entry): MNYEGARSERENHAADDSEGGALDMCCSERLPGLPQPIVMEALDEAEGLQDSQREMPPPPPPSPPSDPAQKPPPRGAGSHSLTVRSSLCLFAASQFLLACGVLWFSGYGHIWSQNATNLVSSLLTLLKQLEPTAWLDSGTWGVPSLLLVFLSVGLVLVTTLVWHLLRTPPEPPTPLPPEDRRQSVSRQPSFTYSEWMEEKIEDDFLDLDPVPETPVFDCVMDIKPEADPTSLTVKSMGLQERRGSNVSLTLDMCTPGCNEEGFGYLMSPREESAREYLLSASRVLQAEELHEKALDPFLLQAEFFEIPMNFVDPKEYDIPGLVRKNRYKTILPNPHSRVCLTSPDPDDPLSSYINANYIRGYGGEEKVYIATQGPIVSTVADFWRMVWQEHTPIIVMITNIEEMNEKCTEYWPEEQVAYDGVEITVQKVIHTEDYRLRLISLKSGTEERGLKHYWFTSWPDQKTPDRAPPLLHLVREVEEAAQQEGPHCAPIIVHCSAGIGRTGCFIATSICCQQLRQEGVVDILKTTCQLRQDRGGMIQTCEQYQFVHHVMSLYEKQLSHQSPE
# Sequence of Steroidogenic factor 1 (Q13285 whole entry): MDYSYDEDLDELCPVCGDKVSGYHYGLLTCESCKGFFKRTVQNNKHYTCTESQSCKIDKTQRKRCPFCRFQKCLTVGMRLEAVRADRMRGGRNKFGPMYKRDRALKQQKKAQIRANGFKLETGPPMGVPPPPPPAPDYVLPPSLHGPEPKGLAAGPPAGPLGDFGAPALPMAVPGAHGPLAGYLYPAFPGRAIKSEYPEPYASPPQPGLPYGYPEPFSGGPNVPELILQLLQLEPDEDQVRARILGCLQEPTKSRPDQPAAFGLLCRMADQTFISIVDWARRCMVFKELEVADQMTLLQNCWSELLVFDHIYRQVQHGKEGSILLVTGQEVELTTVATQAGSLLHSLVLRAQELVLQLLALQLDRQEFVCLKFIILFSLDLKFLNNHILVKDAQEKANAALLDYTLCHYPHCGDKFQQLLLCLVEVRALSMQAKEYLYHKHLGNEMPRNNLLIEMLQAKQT
# Sequence of Arf-GAP with SH3 domain, ANK repeat and PH domain-containing protein 1 (Q9ULH1 whole entry, the tested form may be a part): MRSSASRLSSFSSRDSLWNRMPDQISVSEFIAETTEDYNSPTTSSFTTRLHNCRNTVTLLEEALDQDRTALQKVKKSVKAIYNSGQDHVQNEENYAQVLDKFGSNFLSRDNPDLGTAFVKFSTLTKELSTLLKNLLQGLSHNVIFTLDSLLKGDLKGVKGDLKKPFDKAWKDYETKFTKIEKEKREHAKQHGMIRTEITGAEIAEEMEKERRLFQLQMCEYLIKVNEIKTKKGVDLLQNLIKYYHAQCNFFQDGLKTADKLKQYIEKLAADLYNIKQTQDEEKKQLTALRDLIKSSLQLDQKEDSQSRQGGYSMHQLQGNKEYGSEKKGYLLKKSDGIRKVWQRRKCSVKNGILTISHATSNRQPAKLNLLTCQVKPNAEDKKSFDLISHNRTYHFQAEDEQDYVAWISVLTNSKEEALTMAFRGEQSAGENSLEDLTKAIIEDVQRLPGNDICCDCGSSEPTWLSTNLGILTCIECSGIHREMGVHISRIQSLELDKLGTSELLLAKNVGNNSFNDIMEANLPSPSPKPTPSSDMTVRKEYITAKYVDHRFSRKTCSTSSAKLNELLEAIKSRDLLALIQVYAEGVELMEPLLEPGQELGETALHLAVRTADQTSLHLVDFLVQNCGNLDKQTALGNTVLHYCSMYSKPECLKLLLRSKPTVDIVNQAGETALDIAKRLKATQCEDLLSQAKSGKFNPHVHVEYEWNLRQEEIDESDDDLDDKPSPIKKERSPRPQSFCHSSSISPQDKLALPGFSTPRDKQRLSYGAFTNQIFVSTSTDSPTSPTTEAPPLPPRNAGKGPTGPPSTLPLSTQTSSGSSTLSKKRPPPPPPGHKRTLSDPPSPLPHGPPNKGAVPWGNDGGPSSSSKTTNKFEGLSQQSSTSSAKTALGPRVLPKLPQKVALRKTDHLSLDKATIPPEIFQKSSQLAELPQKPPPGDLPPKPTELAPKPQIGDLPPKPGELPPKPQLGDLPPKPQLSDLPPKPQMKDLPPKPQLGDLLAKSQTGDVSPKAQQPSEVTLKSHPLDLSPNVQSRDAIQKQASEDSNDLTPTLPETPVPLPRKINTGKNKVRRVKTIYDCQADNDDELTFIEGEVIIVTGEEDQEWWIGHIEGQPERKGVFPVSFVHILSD
# T4 sequence (P63165 whole entry, the tested form may be a part): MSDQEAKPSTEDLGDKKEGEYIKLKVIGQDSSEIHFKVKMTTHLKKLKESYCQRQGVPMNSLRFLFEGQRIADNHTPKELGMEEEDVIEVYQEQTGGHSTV
# Sequence of Tyrosine-protein phosphatase non-receptor type 11 (Q06124 whole entry): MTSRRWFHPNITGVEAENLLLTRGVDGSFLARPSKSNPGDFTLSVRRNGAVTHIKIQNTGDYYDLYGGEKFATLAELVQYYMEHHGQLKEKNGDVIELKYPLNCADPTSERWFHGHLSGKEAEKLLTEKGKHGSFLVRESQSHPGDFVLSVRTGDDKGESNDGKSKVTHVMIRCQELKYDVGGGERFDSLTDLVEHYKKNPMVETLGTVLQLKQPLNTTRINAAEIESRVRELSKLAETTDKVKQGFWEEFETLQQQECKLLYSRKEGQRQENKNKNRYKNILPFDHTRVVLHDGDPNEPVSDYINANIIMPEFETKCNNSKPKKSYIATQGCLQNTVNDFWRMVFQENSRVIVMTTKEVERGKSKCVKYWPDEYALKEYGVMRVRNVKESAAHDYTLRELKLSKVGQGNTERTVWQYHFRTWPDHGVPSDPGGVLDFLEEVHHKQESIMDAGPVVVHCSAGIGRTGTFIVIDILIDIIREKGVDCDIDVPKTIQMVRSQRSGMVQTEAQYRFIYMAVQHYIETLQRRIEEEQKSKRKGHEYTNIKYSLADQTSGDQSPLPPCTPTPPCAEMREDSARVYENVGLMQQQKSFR
# Sequence of Nuclear receptor subfamily 5 group A member 2 (O00482 whole entry): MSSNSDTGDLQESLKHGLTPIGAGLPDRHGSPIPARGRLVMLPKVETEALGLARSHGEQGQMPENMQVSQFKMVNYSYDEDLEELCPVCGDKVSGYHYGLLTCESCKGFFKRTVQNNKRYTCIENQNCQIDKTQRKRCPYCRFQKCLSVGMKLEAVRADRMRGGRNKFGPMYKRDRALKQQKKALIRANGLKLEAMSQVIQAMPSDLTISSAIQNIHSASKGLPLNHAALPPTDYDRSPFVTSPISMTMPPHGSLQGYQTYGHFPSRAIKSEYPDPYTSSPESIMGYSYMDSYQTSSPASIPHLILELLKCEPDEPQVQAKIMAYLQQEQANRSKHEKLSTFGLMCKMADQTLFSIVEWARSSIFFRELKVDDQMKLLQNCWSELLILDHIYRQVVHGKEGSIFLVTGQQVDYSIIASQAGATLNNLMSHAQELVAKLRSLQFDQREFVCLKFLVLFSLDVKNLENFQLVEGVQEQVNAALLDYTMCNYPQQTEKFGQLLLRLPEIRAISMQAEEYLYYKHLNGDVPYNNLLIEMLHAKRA
# Sequence of Mu-type opioid receptor (P35372 whole entry): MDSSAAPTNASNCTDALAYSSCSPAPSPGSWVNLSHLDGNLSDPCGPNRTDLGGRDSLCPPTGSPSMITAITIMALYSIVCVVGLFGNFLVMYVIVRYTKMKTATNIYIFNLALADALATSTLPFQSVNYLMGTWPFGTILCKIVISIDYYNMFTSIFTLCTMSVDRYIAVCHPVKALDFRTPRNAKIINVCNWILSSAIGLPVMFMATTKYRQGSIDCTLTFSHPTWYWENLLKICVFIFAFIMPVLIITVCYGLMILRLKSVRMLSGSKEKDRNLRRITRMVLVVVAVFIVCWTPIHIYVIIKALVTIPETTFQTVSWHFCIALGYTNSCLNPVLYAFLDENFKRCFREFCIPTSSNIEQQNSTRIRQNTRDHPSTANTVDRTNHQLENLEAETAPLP
# Sequence of Dual specificity protein phosphatase 3 (P51452 whole entry): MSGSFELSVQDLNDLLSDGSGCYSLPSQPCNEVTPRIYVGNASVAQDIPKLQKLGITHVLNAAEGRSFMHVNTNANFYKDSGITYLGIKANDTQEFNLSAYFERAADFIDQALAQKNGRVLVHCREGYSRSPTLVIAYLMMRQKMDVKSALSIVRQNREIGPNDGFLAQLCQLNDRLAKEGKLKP
smiles,measurement,setting,value
COc1cc(Br)cc(CN2CCN(c3ncccn3)CC2)c1O,EC50,[1],1.02 µM (active)
same,AC50,[2],> 100 µM (inactive)
same,EC50,Mu-type opioid receptor,92.5 µM (inactive)
Cc1ccc2cccc(OCC(=O)NCCC3=CCCCC3)c2n1,IC50,Steroidogenic factor 1,2.83 µM (active)
same,IC50,[3],35.8 µM (inactive)
same,IC50,[4],4.06 µM (active)
O=C(CCl)NCCCN(C(=O)C(Cl)Cl)c1ccc([N+](=O)[O-])cc1,IC50,Steroidogenic factor 1,4.97 µM (active)
same,IC50,[3],18.8 µM (inactive)
same,IC50,[4],7.45 µM (active)
COc1ccc(OCC(=O)N2CCN(S(=O)(=O)c3ccc(Cl)s3)CC2)cc1,IC50,Beta-galactosidase,> 80 µM (inactive)
COc1cccc(-c2cc(C(=O)N3CCN(C(c4ccccc4)c4ccccc4)CC3)no2)c1,EC50,[5],1.61 µM (active)
same,EC50,[6],25.2 µM (active)
same,IC50,Beta-galactosidase,> 80 µM (inactive)
O=[N+]([O-])c1ccc(O)c(Nc2ncnc3ccccc23)c1,IC50,[7],7.06 µM (active)
same,IC50,[8],13.3 µM (active)
same,IC50,[9],1.77 µM (active)
same,IC50,[10],> 47.1 µM (inactive)
same,IC50,[11],1.98 µM (active)
same,EC50,[12],> 53 µM (inactive)
same,IC50,[13],16.1 µM (active)
COc1ccc(CN2CCN(C(=O)c3cccs3)CC2)cc1,EC50,[1],76.1 µM (inactive)
same,EC50,Mu-type opioid receptor,92.5 µM (inactive)
O=C(N/N=C/c1ccc(Cl)c([N+](=O)[O-])c1)c1ccc2c(c1)OCCO2,IC50,[14],4.44 µM (active)
same,IC50,[15],9.57 µM (active)
same,IC50,[8],7.3 µM (active)
same,IC50,[9],2.29 µM (active)
same,IC50,[16],10.9 µM (inactive)
same,IC50,[11],1.93 µM (active)
same,IC50,[17],> 66.6 µM (inactive)
COCCNc1nc(NCc2cc(-c3ccc(OC)cc3)no2)c2sccc2n1,IC50,[7],23.3 µM (inactive)
same,IC50,[13],9.53 µM (active)
O=[N+]([O-])c1cc(Br)c(Nc2ccccc2)c([N+](=O)[O-])c1,AC50,[18],5.68 µM (active)
same,EC50,[19],4.5 µM (active)
same,AC50,[20],7.5 µM (active)
same,EC50,BJ [21],2.57 µM (inconclusive)
same,EC50,BJ [22],5.53 µM (inconclusive)
same,EC50,BJ [23],1.37 µM (active)
same,EC50,Protein RecA,5.15 µM (active)
same,IC50,[24],2.12 µM (active)
same,EC50,BJ [25],28.3 µM (inconclusive)
COc1ccc(C(=O)Nc2nc3cc4c(cc3s2)OCO4)c(OC)c1,IC50,[16],50.8 µM (inactive)

# From ChEMBL document CHEMBL1201862, “PubChem BioAssay data set” (2004)
